# Measured values as given in ChEMBL document CHEMBL1201862, “PubChem BioAssay data set” (2004).
#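 96-well plates; 48 h exposure; 5 concentrations. Endpoints by linear interpolation between flanking doses. Not reached: highest tested concentration assigned. Here, GI50 denotes the concentration required for 50% inhibition of growth.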 Active and inactive are the calls of the source. Rule as the data show it: active = GI50 up to about 1.1 µM and inactive = higher.
# Assays:
# Assay in all cases: NCI anticancer screen, dose series, 48 h
# LOX IMVI = system: LOX IMVI
# SF-539 = system: SF-539
# IGROV-1 = system: IGROV-1
# OVCAR-3 = system: OVCAR-3
# T47D = system: T47D
# RPMI-8226 = system: RPMI-8226
# MOLT-4 = system: MOLT-4
# Hs-578T = system: Hs-578T
# CCRF-CEM = system: CCRF-CEM
# COLO 205 = system: COLO 205
# M14 = system: M14
# SK-MEL-28 = system: SK-MEL-28
# OVCAR-8 = system: OVCAR-8
# A549 = system: A549
# SNB-75 = system: SNB-75
# HCT-15 = system: HCT-15
# A498 = system: A498
# MDA-MB-435 = system: MDA-MB-435
# MDA-MB-231 = system: MDA-MB-231
# HL-60 = system: HL-60
# Malme-3M = system: Malme-3M
# HOP-92 = system: HOP-92
# SN12C = system: SN12C
# HT-29 = system: HT-29
# NCI-H23 = system: NCI-H23
# MDA-N = system: MDA-N
# HOP-62 = system: HOP-62
# SK-OV-3 = system: SK-OV-3
# OVCAR-5 = system: OVCAR-5
# SR = system: SR
# BT-549 = system: BT-549
# U-251 = system: U-251
# NCI-H460 = system: NCI-H460
# SF-268 = system: SF-268
# SF-295 = system: SF-295
# ACHN = system: ACHN
# EKVX = system: EKVX
# TK-10 = system: TK-10
# UACC-257 = system: UACC-257
# NCI/ADR-RES = system: NCI/ADR-RES
# CAKI-1 = system: CAKI-1
# UO-31 = system: UO-31
# OVCAR-4 = system: OVCAR-4
# NCI-H522 = system: NCI-H522
# UACC-62 = system: UACC-62
# SNB-19 = system: SNB-19
# DU-145 = system: DU-145
# KM12 = system: KM12
# PC-3 = system: PC-3
# SK-MEL-5 = system: SK-MEL-5
# 786-0 = system: 786-0
# SK-MEL-2 = system: SK-MEL-2
# K562 = system: K562
# SW-620 = system: SW-620
# RXF 393 = system: RXF 393
# HCT-116 = system: HCT-116
# MCF7 = system: MCF7
# NCI-H226 = system: NCI-H226
# HCC 2998 = system: HCC 2998
smiles,measurement,setting,value
CC(C)(C)OC(=O)n1c2ccccc2c2c(=O)nc(N3CCCCC3)sc21,GI50,LOX IMVI,> 100 µM (inactive)
same,GI50,SF-539,> 100 µM (inactive)
same,GI50,IGROV-1,> 100 µM (inactive)
same,GI50,OVCAR-3,> 100 µM (inactive)
same,GI50,T47D,> 100 µM (inactive)
same,GI50,RPMI-8226,> 100 µM (inactive)
same,GI50,MOLT-4,> 100 µM (inactive)
same,GI50,Hs-578T,> 100 µM (inactive)
same,GI50,CCRF-CEM,> 100 µM (inactive)
same,GI50,COLO 205,> 100 µM (inactive)
same,GI50,M14,> 100 µM (inactive)
same,GI50,SK-MEL-28,> 100 µM (inactive)
same,GI50,OVCAR-8,> 100 µM (inactive)
same,GI50,A549,> 100 µM (inactive)
same,GI50,SNB-75,> 100 µM (inactive)
same,GI50,HCT-15,> 100 µM
same,GI50,A498,> 100 µM (inactive)
same,GI50,MDA-MB-435,> 100 µM (inactive)
same,GI50,MDA-MB-231,> 100 µM (inactive)
same,GI50,HL-60,> 100 µM (inactive)
same,GI50,Malme-3M,> 100 µM (inactive)
same,GI50,HOP-92,> 100 µM (inactive)
same,GI50,SN12C,> 100 µM (inactive)
same,GI50,HT-29,> 100 µM (inactive)
same,GI50,NCI-H23,> 100 µM (inactive)
same,GI50,MDA-N,> 100 µM (inactive)
same,GI50,HOP-62,> 100 µM (inactive)
same,GI50,SK-OV-3,> 100 µM (inactive)
same,GI50,OVCAR-5,> 100 µM (inactive)
same,GI50,SR,90.4 µM (inactive)
same,GI50,BT-549,> 100 µM (inactive)
same,GI50,U-251,> 100 µM (inactive)
same,GI50,NCI-H460,65.2 µM (inactive)
same,GI50,SF-268,58.9 µM (inactive)
same,GI50,SF-295,> 100 µM (inactive)
same,GI50,ACHN,> 100 µM (inactive)
same,GI50,EKVX,> 100 µM (inactive)
same,GI50,TK-10,> 100 µM (inactive)
same,GI50,UACC-257,> 100 µM (inactive)
same,GI50,NCI/ADR-RES,> 100 µM (inactive)
same,GI50,CAKI-1,> 100 µM (inactive)
same,GI50,UO-31,22.3 µM (inactive)
same,GI50,OVCAR-4,> 100 µM (inactive)
same,GI50,NCI-H522,> 100 µM (inactive)
same,GI50,UACC-62,> 100 µM (inactive)
same,GI50,SNB-19,> 100 µM (inactive)
same,GI50,DU-145,> 100 µM (inactive)
same,GI50,KM12,> 100 µM (inactive)
same,GI50,PC-3,> 100 µM (inactive)
same,GI50,SK-MEL-5,> 100 µM (inactive)
same,GI50,786-0,> 100 µM (inactive)
same,GI50,SK-MEL-2,> 100 µM (inactive)
same,GI50,K562,> 100 µM (inactive)
same,GI50,SW-620,> 100 µM (inactive)
CCOC(=O)c1ccc(-n2nnc(C(N)=O)c2O)cc1,GI50,RXF 393,> 100 µM (inactive)
same,GI50,IGROV-1,> 100 µM (inactive)
same,GI50,OVCAR-3,> 100 µM (inactive)
same,GI50,T47D,> 100 µM (inactive)
same,GI50,RPMI-8226,> 100 µM (inactive)
same,GI50,MOLT-4,> 100 µM (inactive)
same,GI50,Hs-578T,> 100 µM (inactive)
same,GI50,CCRF-CEM,> 100 µM (inactive)
same,GI50,COLO 205,> 100 µM (inactive)
same,GI50,M14,> 100 µM (inactive)
same,GI50,SK-MEL-28,> 100 µM (inactive)
same,GI50,OVCAR-8,> 100 µM (inactive)
same,GI50,A549,> 100 µM (inactive)
same,GI50,SNB-75,> 100 µM (inactive)
same,GI50,HCT-116,> 100 µM (inactive)
same,GI50,HCT-15,> 100 µM
same,GI50,MDA-MB-435,> 100 µM (inactive)
same,GI50,MDA-MB-231,> 100 µM (inactive)
same,GI50,Malme-3M,> 100 µM (inactive)
same,GI50,SN12C,> 100 µM (inactive)
same,GI50,HT-29,> 100 µM (inactive)
same,GI50,NCI-H23,> 100 µM (inactive)
same,GI50,MDA-N,> 100 µM (inactive)
same,GI50,HOP-62,> 100 µM (inactive)
same,GI50,SK-OV-3,> 100 µM (inactive)
same,GI50,OVCAR-5,> 100 µM (inactive)
same,GI50,MCF7,> 100 µM (inactive)
same,GI50,BT-549,> 100 µM (inactive)
same,GI50,U-251,> 100 µM (inactive)
same,GI50,NCI-H460,> 100 µM (inactive)
same,GI50,SF-268,> 100 µM (inactive)
same,GI50,SF-295,> 100 µM (inactive)
same,GI50,NCI-H226,> 100 µM (inactive)
same,GI50,ACHN,> 100 µM (inactive)
same,GI50,EKVX,> 100 µM (inactive)
same,GI50,TK-10,> 100 µM (inactive)
same,GI50,UACC-257,> 100 µM (inactive)
same,GI50,NCI/ADR-RES,> 100 µM (inactive)
same,GI50,CAKI-1,> 100 µM (inactive)
same,GI50,UO-31,> 100 µM (inactive)
same,GI50,OVCAR-4,> 100 µM (inactive)
same,GI50,NCI-H522,> 100 µM (inactive)
same,GI50,UACC-62,> 100 µM (inactive)
same,GI50,SNB-19,> 100 µM (inactive)
same,GI50,DU-145,> 100 µM (inactive)
same,GI50,KM12,> 100 µM (inactive)
same,GI50,PC-3,> 100 µM (inactive)
same,GI50,HCC 2998,> 100 µM (inactive)
same,GI50,SK-MEL-5,> 100 µM (inactive)
same,GI50,786-0,> 100 µM (inactive)
same,GI50,SK-MEL-2,> 100 µM (inactive)
same,GI50,K562,> 100 µM (inactive)
same,GI50,SW-620,> 100 µM (inactive)
O=c1c(C(c2ccc(/C=C/c3ccccc3)cc2)c2c(O)oc3ccccc3c2=O)c(O)oc2ccccc12,GI50,LOX IMVI,25.8 µM (inactive)
same,GI50,IGROV-1,27.3 µM (inactive)
same,GI50,OVCAR-3,36 µM (inactive)
same,GI50,T47D,39.2 µM (inactive)
same,GI50,RPMI-8226,27.2 µM (inactive)
same,GI50,MOLT-4,24.1 µM (inactive)
same,GI50,Hs-578T,26.8 µM (inactive)
same,GI50,CCRF-CEM,41.4 µM (inactive)
same,GI50,COLO 205,22.6 µM (inactive)
same,GI50,SK-MEL-28,33.3 µM (inactive)
same,GI50,OVCAR-8,20.2 µM (inactive)
same,GI50,SNB-75,19.7 µM (inactive)
same,GI50,HCT-116,29.6 µM (inactive)
same,GI50,HCT-15,44 µM
same,GI50,A498,30.5 µM (inactive)
same,GI50,MDA-MB-435,29 µM (inactive)
same,GI50,MDA-MB-231,28.7 µM (inactive)
same,GI50,HL-60,49.3 µM (inactive)
same,GI50,Malme-3M,21.6 µM (inactive)
same,GI50,HOP-92,23.1 µM (inactive)
same,GI50,SN12C,21.8 µM (inactive)
same,GI50,HT-29,20.3 µM (inactive)
same,GI50,NCI-H23,28.1 µM (inactive)
same,GI50,MDA-N,21.8 µM (inactive)
same,GI50,HOP-62,27.8 µM (inactive)
same,GI50,BT-549,26.6 µM (inactive)
same,GI50,U-251,18.5 µM (inactive)
same,GI50,NCI-H460,24.5 µM (inactive)
same,GI50,SF-268,22.4 µM (inactive)
same,GI50,NCI-H226,28.2 µM (inactive)
same,GI50,ACHN,18.8 µM (inactive)
same,GI50,EKVX,28.6 µM (inactive)
same,GI50,TK-10,92.5 µM (inactive)
same,GI50,UACC-257,53.7 µM (inactive)
same,GI50,NCI/ADR-RES,24.9 µM (inactive)
same,GI50,CAKI-1,23 µM (inactive)
same,GI50,UO-31,18.6 µM (inactive)
same,GI50,OVCAR-4,35.6 µM (inactive)
same,GI50,NCI-H522,18.6 µM (inactive)
same,GI50,UACC-62,35.6 µM (inactive)
same,GI50,SNB-19,46.9 µM (inactive)
same,GI50,DU-145,50.8 µM (inactive)
same,GI50,KM12,23 µM (inactive)
same,GI50,PC-3,40.2 µM (inactive)
same,GI50,HCC 2998,23.3 µM (inactive)
same,GI50,SK-MEL-5,26.5 µM (inactive)
same,GI50,786-0,24.4 µM (inactive)
same,GI50,SK-MEL-2,34.8 µM (inactive)
same,GI50,K562,> 100 µM (inactive)
same,GI50,SW-620,37.9 µM (inactive)
